Literature values as cited in the CATMoS acute toxicity set (Mansouri et al. 2021).
Where “and” joins values, the source holds several entries; their conditions need not be identical. Identical values can stand only once.

Assay: rat acute oral toxicity
Conditions: in vivo

## O=C1c2ccccc2C(=O)c2c(Nc3ccc(Oc4ccc(S(=O)(=O)O)cc4)cc3)ccc(Nc3ccc(Oc4ccc(S(=O)(=O)O)cc4)cc3)c21
  LD50: 8550 mg/kg

## CCCCCCCCCCCCCCCCCC[N+](C)(C)CC(O)CCl (stereo unspecified)
  LD50: 2590 mg/kg

## c1cc(OCC2CO2)cc(OCC2CO2)c1 (stereo unspecified)
  LD50: 2570 mg/kg

## COc1ccc(-c2ccccc2)cc1CN1CCCC1
  LD50: 28 mg/kg

## Cc1cncc(CN2CCC(=C3c4ccc(Cl)cc4CCc4cccnc43)CC2)c1
  LD50: 1000 mg/kg

## Clc1cn[nH]c1
  LD50: 527 mg/kg

## NC(=O)OCCCc1ccccc1
  LD50: 1110 mg/kg

## Cc1ccc(C(C)C)cc1
  LD50: 4750 mg/kg

## COC(=S)SSC(=S)OC
  LD50: 240 mg/kg

## COc1ccc2c(c1)N(C[C@H](C)CN(C)C)c1ccccc1S2
  LD50: 1100 mg/kg

## COP(=S)(OC)SCSc1ccc(Cl)cc1
  LD50: 48 mg/kg

## COc1ccc2oc(N)nc2c1
  LD50: 1000 mg/kg

## O=C(Nc1ccc(Br)cc1)c1cc(Br)cc(Br)c1O
  LD50: 410 mg/kg

## Cc1cc(C(=O)NNCc2ccccc2)no1
  LD50: 280 mg/kg

## O=S(=O)(NC(O)=NC1CCCCC1)c1ccc(Cl)cc1
  LD50: 1520 mg/kg

## CCOP(=O)(O)Sc1ccc(C)cc1
  LD50: 50 mg/kg

## C[N+]1(CCC(C(N)=O)(c2ccccc2)c2ccccc2)CCCCCC1
  LD50: 2800 mg/kg

## CC=Cc1ccccc1
  LD50: 3600 mg/kg

## CC(C[N+](C)(C)C)OC(N)=O (stereo unspecified)
  LD50: 1500 mg/kg

## Nc1ccc2ccc3cccc4ccc1c2c34
  LD50: 1070 mg/kg

## CCCCCCCOCCO
  LD50: 2280 mg/kg

## N#CC(OC1OC(COC2OC(CO)C(O)C(O)C2O)C(O)C(O)C1O)c1ccccc1 (stereo unspecified)
  LD50: 517 mg/kg

## CC(C)(C)c1cc(C(=O)c2cccs2)cc(C(C)(C)C)c1O
  LD50: 1620 mg/kg

## CCN(CC)CCNc1c(Cl)cc(C)c2ncccc12
  LD50: 900 mg/kg

## CNC(=O)Oc1ccccc1C1OCC=CCO1
  LD50: 35 mg/kg

## C[C@@H]1CC[C@H]2[C@@H](C)C(=O)O[C@@H]3O[C@@]4(C)CC[C@@H]1[C@]32OO4
  LD50: 5580 mg/kg

## N#Cc1cc2[nH]c(C(F)(F)F)nc2c(Cl)c1Cl
  LD50: 3960 mg/kg

## O=NN1CCCOC1
  LD50: 600 mg/kg

## CCCSP(=S)(OC)SCCC
  LD50: 16 mg/kg

## CC(C)OCCCO
  LD50: 4000 mg/kg

## CCOC(=O)COP(=S)(OCC)OCC
  LD50: 1000 mg/kg

## NC(=O)c1cc(C(=O)CBr)ccc1O
  LD50: 800 mg/kg

## COc1c(OP(=S)(OCC(C)C)OCC(C)C)cnn(C)c1=O
  LD50: 135 mg/kg

## CCc1ccccc1N
  LD50: 1260 mg/kg

## Clc1cccc(C2CCCCC2)c1Cl
  LD50: 4750 mg/kg

## c1ccc(C2=C(c3ccccc3)SCCO2)cc1
  LD50: 3000 mg/kg

## CC(c1ccc(C(F)(F)F)nc1)S(C)(=O)=NC#N (stereo unspecified)
  LD50: 1000 mg/kg

## OCCNCC(O)CNCCO
  LD50: 7200 mg/kg

## NCC1CCC=CO1 (stereo unspecified)
  LD50: 1000 mg/kg

## NC(=O)C(c1ccccc1)c1ccccc1
  LD50: 600 mg/kg

## CCCCOC(=O)c1ccccc1C(=O)OCCOCCOC(=O)c1ccccc1C(=O)OCCCC
  LD50: 11000 mg/kg

## CCCCCC1=C(C)CCC1=O
  LD50: 2500 mg/kg

## CN1CCN(CCC(=O)NN=Cc2ccc([N+](=O)[O-])o2)CC1
  LD50: 300 mg/kg

## CC(O)=S
  LD50: 200 mg/kg

## C=COC(=O)C=CC
  LD50: 6500 mg/kg

## CN1CCCC(=C(c2cccs2)c2cccs2)C1
  LD50: 10000 mg/kg

## CCc1c(C)[nH]c2c1C(=O)C1CN(C)CCC1C2 (stereo unspecified)
  LD50: 220 mg/kg

## OCCN1CCN(CCCN2c3ccccc3C=Cc3ccccc32)CC1
  LD50: 1110 mg/kg and 900 mg/kg

## C=CCOc1ccccc1C(=O)N(C)C
  LD50: 740 mg/kg

## ClCC1C(CCl)C2(Cl)C(Cl)=C(Cl)C1(Cl)C2(Cl)Cl (stereo unspecified)
  LD50: 200 mg/kg

## CCN(CC)CCNC(=O)c1cc(S(C)(=O)=O)ccc1OC
  LD50: 4840 mg/kg

## O=C(O)C1CC=CCC1 (stereo unspecified)
  LD50: 4260 mg/kg

## O=C(c1ccccc1)c1cccc2c1CCC2C(=O)O (stereo unspecified)
  LD50: 41.1 mg/kg

## CCCCc1ccn[nH]1
  LD50: 509 mg/kg

## CCN(CC)CCN(C)n1cc(-c2ccccc2)c2ccccc21
  LD50: 650 mg/kg

## CC(=O)Oc1ccc(Br)cc1C(=O)O
  LD50: 1130 mg/kg

## CCNC(N)=S
  LD50: 100 mg/kg

## O=NN1CN2CN(C1)CN(N=O)C2
  LD50: 940 mg/kg

## CNC(=S)/C=C/c1ccc2c(c1)OCO2
  LD50: 230 mg/kg

## CCOC(=O)C(C)Oc1ccc(Oc2nc3ccc(Cl)cc3s2)cc1 (stereo unspecified)
  LD50: 907 mg/kg

## CCOP(=O)(OCC)Oc1ccc(S(C)(=O)=O)c(C)c1
  LD50: 8.13 mg/kg

## CN(C/C=C/C#CC(C)(C)C)Cc1cccc2ccccc12
  LD50: 4000 mg/kg

## COc1ccccc1N1CCN(CCCOc2ccc(N)cc2)CC1
  LD50: 416 mg/kg

## CN(C)C(=O)NC1CCCCCCC1
  LD50: 1500 mg/kg

## C=C(O)C(=O)O
  LD50: 10000 mg/kg

## c1ccc2c(c1)CN1CCN=C1N2
  LD50: 900 mg/kg

## NS(=O)(=O)c1ccc2nc(C(F)(F)F)[nH]c2c1
  LD50: 21 mg/kg

## CN(SC(Cl)(Cl)Cl)C(=O)ON=C1SC(=C(C#N)C#N)SC1(C)C
  LD50: 538 mg/kg

## c1ccc(NC[Si]23OCCN(CCO2)CCO3)cc1
  LD50: 0.328 mg/kg

## Nc1ccc(C=Cc2ccc([N+](=O)[O-])cc2S(=O)(=O)O)c(S(=O)(=O)O)c1
  LD50: 14200 mg/kg

## CC(c1ccccc1)c1ccc(O)cc1O (stereo unspecified)
  LD50: 500 mg/kg

## CSC(C)=NOC(=O)N(C)SN(C)C(=O)Oc1ccc(C(C)(C)c2ccc(OC(=O)N(C)SN(C)C(=O)ON=C(C)SC)cc2)cc1
  LD50: 508 mg/kg

## O=S(=O)(F)C1CCC(S(=O)(=O)F)C1 (stereo unspecified)
  LD50: 7.9 mg/kg

## O=C(O)CN(CCOCCOCCN(CC(=O)O)CC(=O)O)CC(=O)O
  LD50: 4000 mg/kg and 3590 mg/kg

## CCCCCc1cc(O)c2c(c1)OC(C)(C)[C@@H]1CC=C(C)C[C@@H]21
  LD50: 860 mg/kg

## CC(C)NCC(O)c1cc(O)cc(O)c1 (stereo unspecified)
  LD50: 3370 mg/kg

## CC(C)(C)OC(=O)N1CC(=O)C1
  LD50: 2500 mg/kg

## [N-]=[N+]=CC(=O)OC[C@H](N)C(=O)O
  LD50: 170 mg/kg

## O=S(=O)(CCCl)COCS(=O)(=O)CCCl
  LD50: 168 mg/kg

## CS(=O)(=O)OCCCN(CCCOS(C)(=O)=O)Cc1ccccc1
  LD50: 375 mg/kg

## O=C1CCc2cc(C(=O)CCN3CCC(Cc4ccccc4)CC3)ccc2N1
  LD50: 500 mg/kg
